Laboratory results published in ChEMBL document CHEMBL4152237, “Identification of novel β-lactams and pyrrolidinone derivatives as selective Histamine-3 receptor (H3R) modulators as possible anti-obesity agents” (Eur J Med Chem, 2018).
Activity calls are given as the source filed them. Unless noted, the calls are words filed in the database; no cut-off is given here.

Tests used:
[1] = target: T1, 5-hydroxytryptamine receptor 2C (Homo sapiens) (UniProt P28335); assay: Antagonist activity at human 5-HT2C expressed in HEK293 cells harboring luc2P/NFAT-RE plasmid at 10 uM after 6 to 8 hrs by luciferase reporter gene assay; format: functional, cell-based
T1 sequence (whole entry): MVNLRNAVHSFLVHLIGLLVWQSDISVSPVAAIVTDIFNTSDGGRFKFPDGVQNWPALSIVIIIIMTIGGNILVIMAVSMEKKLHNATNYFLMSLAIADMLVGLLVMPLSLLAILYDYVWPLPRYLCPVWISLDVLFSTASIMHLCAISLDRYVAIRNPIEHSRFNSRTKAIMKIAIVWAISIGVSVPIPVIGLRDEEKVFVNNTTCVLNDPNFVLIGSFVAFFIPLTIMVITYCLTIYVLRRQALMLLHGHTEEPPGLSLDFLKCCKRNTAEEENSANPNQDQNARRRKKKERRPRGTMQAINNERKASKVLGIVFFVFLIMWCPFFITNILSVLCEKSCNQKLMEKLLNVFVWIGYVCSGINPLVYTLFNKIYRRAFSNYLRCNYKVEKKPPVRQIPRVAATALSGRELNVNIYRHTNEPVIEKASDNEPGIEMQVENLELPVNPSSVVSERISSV

Histamine H3 receptor [2] = target: T2, Histamine H3 receptor (Homo sapiens, UniProt Q9Y5N1); assay: (§1) Agonist activity at human H3R expressed in HEK293 cells harboring glosensor-22F cAMP plasmid DNA assessed as inhibition of forskolin-stimulated cAMP accumulation preincubated with cells followed by forskolin addition measured after 10 mins by luminescence assay; format: functional, cell-based
[3] = target: T1, 5-hydroxytryptamine receptor 2C (Homo sapiens); assay: Agonist activity at human 5-HT2C expressed in HEK293 cells harboring luc2P/NFAT-RE plasmid at 10 uM after 6 to 8 hrs by luciferase reporter gene assay; format: functional, cell-based
[4] = target: Luciferin 4-monooxygenase (Photinus pyralis) (UniProt P08659); assay: Inhibition of firefly luciferase activity expressed in HEK293 cells assessed as reduction in forskolin-stimulated cAMP accumulation up to 10 uM preincubated with cells followed by forskolin addition measured after 10 mins by luminescence assay; format: cell-based
[5] = target: Histamine H4 receptor (Homo sapiens) (UniProt Q9H3N8); assay: Antagonist activity at H4R (unknown origin) expressed in HEK293 cells harboring glosensor-22F cAMP plasmid DNA assessed as effect on forskolin-stimulated cAMP accumulation at 10 uM preincubated with cells followed by forskolin addition measured after 10 mins by luminescence assay; format: functional, cell-based
[6] = target: Histamine H1 receptor (Homo sapiens) (UniProt P35367); assay: Agonist activity at H1R (unknown origin) expressed in HEK293 cells harboring luc2P/NFAT-RE plasmid at 10 uM after 6 to 8 hrs by luciferase reporter gene assay; format: functional, cell-based
Histamine H3 receptor [7] = target: T2, Histamine H3 receptor; assay: as §1, with “accumulation at 1 uM” for “accumulation”, “mins in presence of H3R antagonist GSK334429” for “mins”; format: functional, cell-based
[8] = target: Histamine H2 receptor (Homo sapiens) (UniProt P25021); assay: Agonist activity at H2R (unknown origin) expressed in HEK293 cells harboring glosensor-22F cAMP plasmid DNA assessed as inhibition of forskolin-stimulated cAMP accumulation at 10 uM preincubated with cells followed by forskolin addition measured after 10 mins by luminescence assay; format: functional, cell-based
[9] = target: Histamine H1 receptor (Homo sapiens) (UniProt P35367); assay: Antagonist activity at H1R (unknown origin) expressed in HEK293 cells harboring luc2P/NFAT-RE plasmid at 10 uM after 6 to 8 hrs by luciferase reporter gene assay; format: functional, cell-based
HEK-293T = assay: Cytotoxicity against HEK293T cells assessed as reduction in cell viability at 1 to 10 uM after 24 hrs by XTT assay; format: cell-based; conditions: human
[10] = target: Histamine H4 receptor (Homo sapiens) (UniProt Q9H3N8); assay: Agonist activity at H4R (unknown origin) expressed in HEK293 cells harboring glosensor-22F cAMP plasmid DNA assessed as inhibition of forskolin-stimulated cAMP accumulation at 10 uM preincubated with cells followed by forskolin addition measured after 10 mins by luminescence assay; format: functional, cell-based
[11] = target: Histamine H2 receptor (Homo sapiens) (UniProt P25021); assay: Antagonist activity at H2R (unknown origin) expressed in HEK293 cells harboring glosensor-22F cAMP plasmid DNA assessed as effect on forskolin-stimulated cAMP accumulation at 10 uM preincubated with cells followed by forskolin addition measured after 10 mins by luminescence assay; format: functional, cell-based
Histamine H3 receptor [12] = target: T2, Histamine H3 receptor; assay: Agonist activity at human H3R expressed in HEK293 cells harboring glosensor-22F cAMP plasmid DNA assessed as inhibition of forskolin-stimulated cAMP accumulation at 10 uM preincubated with cells followed by forskolin addition measured after 10 mins by luminescence assay relative to control; format: functional, cell-based

T2 sequence (Q9Y5N1 whole entry): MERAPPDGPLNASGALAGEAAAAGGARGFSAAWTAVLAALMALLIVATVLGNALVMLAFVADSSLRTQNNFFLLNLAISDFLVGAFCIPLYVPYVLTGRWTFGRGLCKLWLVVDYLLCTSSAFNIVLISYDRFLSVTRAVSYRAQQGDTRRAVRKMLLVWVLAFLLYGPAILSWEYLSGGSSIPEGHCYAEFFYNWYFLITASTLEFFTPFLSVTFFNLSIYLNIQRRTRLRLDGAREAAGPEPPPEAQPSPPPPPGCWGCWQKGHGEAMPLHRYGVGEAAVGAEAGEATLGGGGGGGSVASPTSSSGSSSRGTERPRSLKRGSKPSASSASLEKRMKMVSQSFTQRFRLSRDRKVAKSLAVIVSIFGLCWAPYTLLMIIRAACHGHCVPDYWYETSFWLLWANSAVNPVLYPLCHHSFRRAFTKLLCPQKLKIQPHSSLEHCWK
Sequence of Histamine H1 receptor (Homo sapiens) (P35367 whole entry): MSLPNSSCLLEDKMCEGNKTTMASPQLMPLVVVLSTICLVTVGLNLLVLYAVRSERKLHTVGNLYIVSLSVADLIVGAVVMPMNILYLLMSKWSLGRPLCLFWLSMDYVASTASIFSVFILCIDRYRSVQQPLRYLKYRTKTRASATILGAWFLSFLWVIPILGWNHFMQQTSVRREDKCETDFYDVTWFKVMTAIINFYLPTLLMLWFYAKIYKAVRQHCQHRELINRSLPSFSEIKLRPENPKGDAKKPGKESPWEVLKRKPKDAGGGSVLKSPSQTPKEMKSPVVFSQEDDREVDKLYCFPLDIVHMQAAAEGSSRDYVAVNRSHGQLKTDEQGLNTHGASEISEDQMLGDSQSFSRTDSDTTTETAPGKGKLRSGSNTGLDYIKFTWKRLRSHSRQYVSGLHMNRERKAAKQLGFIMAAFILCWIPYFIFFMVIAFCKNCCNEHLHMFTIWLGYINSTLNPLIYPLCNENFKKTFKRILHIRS
Sequence of Histamine H2 receptor (Homo sapiens) (P25021 whole entry): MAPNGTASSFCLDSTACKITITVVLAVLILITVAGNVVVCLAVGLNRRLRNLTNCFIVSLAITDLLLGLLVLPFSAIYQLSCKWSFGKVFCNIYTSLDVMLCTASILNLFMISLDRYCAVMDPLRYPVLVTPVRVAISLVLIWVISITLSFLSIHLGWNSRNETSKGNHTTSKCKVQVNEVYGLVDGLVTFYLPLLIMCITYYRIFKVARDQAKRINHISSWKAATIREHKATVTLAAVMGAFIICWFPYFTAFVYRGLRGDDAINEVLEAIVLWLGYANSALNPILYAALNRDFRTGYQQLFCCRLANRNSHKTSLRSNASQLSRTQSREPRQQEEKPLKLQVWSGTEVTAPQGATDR
Sequence of Luciferin 4-monooxygenase (Photinus pyralis) (P08659 whole entry): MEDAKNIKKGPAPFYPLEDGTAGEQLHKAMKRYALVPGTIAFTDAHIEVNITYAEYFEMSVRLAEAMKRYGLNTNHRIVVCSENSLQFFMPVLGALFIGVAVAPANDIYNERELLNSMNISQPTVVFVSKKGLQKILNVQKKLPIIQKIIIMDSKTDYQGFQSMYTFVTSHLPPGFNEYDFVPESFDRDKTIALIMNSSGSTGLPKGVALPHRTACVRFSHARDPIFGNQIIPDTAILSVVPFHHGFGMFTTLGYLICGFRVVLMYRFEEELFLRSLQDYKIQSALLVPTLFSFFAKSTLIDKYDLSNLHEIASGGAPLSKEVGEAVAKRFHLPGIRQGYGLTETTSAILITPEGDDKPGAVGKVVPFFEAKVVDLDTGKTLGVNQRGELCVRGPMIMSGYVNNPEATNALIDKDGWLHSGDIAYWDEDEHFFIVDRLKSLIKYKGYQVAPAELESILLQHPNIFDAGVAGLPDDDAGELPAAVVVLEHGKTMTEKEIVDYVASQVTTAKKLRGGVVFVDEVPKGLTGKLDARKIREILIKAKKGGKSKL

| SMILES | inhibition [1] | EC50 (Histamine H3 receptor [2]; read-out: EC50) [nM] | Activity [3] | inhibition [4] | inhibition [5] | Activity [6] | inhibition (Histamine H3 receptor [7]) | inhibition [8] | inhibition [9] | inhibition [10] | inhibition [11] | EC50 (Histamine H3 receptor [2]; read-out: pEC50 (converted)) [nM] | inhibition (Histamine H3 receptor [12]) | Activity (HEK-293T) |
| --- | --- | --- | --- | --- | --- | --- | --- | --- | --- | --- | --- | --- | --- | --- |
| COC1=CC2(C=C(OC)C1=O)C(c1ccccc1)=C(c1ccc(C(F)(F)F)cc1)C(=O)N2C(C(=O)NC1CCCCC1)c1ccc(OC)c(OC)c1OC (centres undefined) | inactive | 6.7 | inactive | inactive | inactive | inactive | inactive | inactive | inactive | inactive | inactive |  |  | Non-Toxic |
| N=C(N)SCCc1cnc[nH]1 |  | 0.08 |  |  |  |  |  |  |  |  |  |  |  |  |
| COc1ccc(NC2(c3ccc(Br)cc3)C(=O)N(C(C)(C)C)C(=O)/C2=C/c2ccccc2)cc1OC (centres undefined) | inactive | 1.3 | inactive | inactive | inactive | inactive | inactive | inactive | inactive | inactive | inactive |  |  | Non-Toxic |
| COc1ccc(NC2(c3cc(F)cc(F)c3)C(=O)N(C3CCCCC3)C(=O)/C2=C/c2ccccc2)cc1 (centres undefined) | inactive | 3.8 | inactive | inactive | inactive | inactive | inactive | inactive | inactive | inactive | inactive |  |  | Non-Toxic |
| COc1cc(N2C(=O)C(=Cc3ccccc3)C2(C(=O)NC(C)(C)C)c2ccccc2)cc(OC)c1OC (centres undefined) | inactive | 0.1 | inactive | inactive | inactive | inactive | inactive | inactive | inactive | inactive | inactive |  |  | Non-Toxic |
| Cc1ccc(C(C(=O)NC(C)(C)C)N2C(=O)C(I)=C(c3ccccc3)C23C=CC(=O)C=C3)cc1 (centres undefined) |  |  | inactive |  |  |  |  |  |  |  |  |  | inactive |  |
| COc1cc(OC)c(C(C(=O)NC2CCCCC2)N2C(=O)C(c3ccc(CO)cc3)=C(c3ccccc3)C23C=CC(=O)C=C3)cc1OC (centres undefined) |  |  | inactive |  |  |  |  |  |  |  |  |  | inactive |  |
| CC(C)(C)NC(=O)C(c1ccc(C#N)cc1)N1C(=O)C(I)=C(c2ccccc2)C12C=CC(=O)C=C2 (centres undefined) |  |  | inactive |  |  |  |  |  |  |  |  |  | inactive |  |
| COc1ccc(C(C(=O)NC2CCCCC2)N2C(=O)C(I)=C(c3ccccc3)C23C=CC(=O)C=C3)cc1 (centres undefined) |  |  | inactive |  |  |  |  |  |  |  |  |  | inactive |  |
| O=C1C=CC2(C=C1)C(c1ccccc1)=C(I)C(=O)N2C(C(=O)NC1CCCCC1)c1cccc([N+](=O)[O-])c1 (centres undefined) |  |  | inactive |  |  |  |  |  |  |  |  |  | inactive |  |
| COc1ccc(NC2(c3ccc(Cl)c(F)c3)C(=O)N(C3CCCCC3)C(=O)/C2=C/c2ccccc2)cc1OC (centres undefined) |  |  | inactive |  |  |  |  |  |  |  |  |  | inactive |  |
| COc1ccc(NC2(c3ccccc3)C(=O)N(C3CCCCC3)C(=O)/C2=C/c2ccccc2)cc1OC (centres undefined) |  |  | inactive |  |  |  |  |  |  |  |  |  | inactive |  |
| COc1ccc(N2C(=O)C(=Cc3ccccc3)C2(C(=O)NC(C)(C)C)c2ccccc2)cc1 (centres undefined) |  |  | inactive |  |  |  |  |  |  |  |  |  | inactive |  |
| O=C1C=CC2(C=C1)C(c1ccccc1)=C(I)C(=O)N2C(C(=O)NC1CCCCC1)c1cc2c(cc1Br)OCO2 (centres undefined) |  |  | inactive |  |  |  |  |  |  |  |  |  | inactive |  |
| COC1=CC2(C=C(OC)C1=O)C(c1ccccc1)=C(c1ccc(CO)cc1)C(=O)N2C(C(=O)NC1CCCCC1)c1ccc(OC)c(OC)c1OC (centres undefined) |  |  | inactive |  |  |  |  |  |  |  |  |  | inactive |  |
| COc1ccc(C2(Nc3cc(OC)c(OC)c(OC)c3)C(=O)N(C(C)(C)C)C(=O)/C2=C/c2ccccc2)cc1 (centres undefined) |  |  | inactive |  |  |  |  |  |  |  |  |  | inactive |  |
| COC1=CC2(C=C(OC)C1=O)C(c1ccccc1)=C(c1cccc3c1OCO3)C(=O)N2C(C(=O)NC1CCCCC1)c1cc(OC)c(OC)c(OC)c1 (centres undefined) |  |  | inactive |  |  |  |  |  |  |  |  |  | inactive |  |

The next lines start with results.

| inhibition [1] | EC50 (Histamine H3 receptor [2]; read-out: EC50) [nM] | Activity [3] | inhibition [4] | inhibition [5] | Activity [6] | inhibition (Histamine H3 receptor [7]) | inhibition [8] | inhibition [9] | inhibition [10] | inhibition [11] | EC50 (Histamine H3 receptor [2]; read-out: pEC50 (converted)) [nM] | inhibition (Histamine H3 receptor [12]) | SMILES | Activity (HEK-293T) |
| --- | --- | --- | --- | --- | --- | --- | --- | --- | --- | --- | --- | --- | --- | --- |
| inactive | 187 | inactive | inactive | inactive | inactive | inactive | inactive | inactive | inactive | inactive |  |  | COc1cc(NC2(c3ccccc3Cl)C(=O)N(C(C)(C)C)C(=O)/C2=C/c2ccccc2)cc(OC)c1OC (centres undefined) | Non-Toxic |
| inactive | 14.4 | inactive | inactive | inactive | inactive | inactive | inactive | inactive | inactive | inactive |  |  | COc1ccc(C2=C(c3ccccc3)C3(C=CC(=O)C=C3)N(C(C(=O)NC3CCCCC3)c3cc4c(cc3Br)OCO4)C2=O)cc1 (centres undefined) | Non-Toxic |
| inactive | 0.1 | inactive | inactive | inactive | inactive | inactive | inactive | inactive | inactive | inactive |  |  | COc1ccc(N2C(=O)C(=Cc3ccccc3)C2(C(=O)NC2CCCCC2)c2cc(F)c(F)c(F)c2)cc1 (centres undefined) | Non-Toxic |
| inactive | 3 | inactive | inactive | inactive | inactive | inactive | inactive | inactive | inactive | inactive | 22.9 |  | COc1ccc(NC2(c3ccccc3)C(=O)N(C(C)(C)C)C(=O)/C2=C/c2ccccc2)cc1 (centres undefined) | Non-Toxic |
|  |  | inactive |  |  |  |  |  |  |  |  |  | inactive | COc1ccc([C@@H]2C(=O)N[C@@H]3CC(=O)C=C[C@@]34C(c3ccccc3)=CC(=O)N24)cc1 |  |
|  |  | inactive |  |  |  |  |  |  |  |  |  | inactive | COC1=CC2(C=C(OC)C1=O)C(c1ccccc1)=C(c1ccc(OC)c(OC)c1OC)C(=O)N2C(C(=O)NC1CCCCC1)c1cc(OC)c(OC)c(OC)c1 (centres undefined) |  |
|  |  | inactive |  |  |  |  |  |  |  |  |  | inactive | Cc1cc(C)cc([C@@H]2C(=O)N[C@@H]3CC(=O)C=C[C@@]34C(c3ccccc3)=CC(=O)N24)c1 |  |
|  |  | inactive |  |  |  |  |  |  |  |  |  | inactive | O=C1C=C[C@]23C(c4ccccc4)=CC(=O)N2[C@H](c2cccc([N+](=O)[O-])c2)C(=O)N[C@@H]3C1 |  |
|  |  | inactive |  |  |  |  |  |  |  |  |  | inactive | COc1cc(N2C(=O)C(=Cc3ccccc3)C2(C(=O)NC(C)(C)C)c2cc(C)cc(C)c2)cc(OC)c1OC (centres undefined) |  |
|  |  | inactive |  |  |  |  |  |  |  |  |  | inactive | O=C1C=C[C@]23C(c4ccccc4)=CC(=O)N2[C@H](c2ccc(Br)cc2)C(=O)N[C@@H]3C1 |  |
